# Results reported in patent US9229013B2, “Vasoactive hormone-based stratification of patients suffering from diseases related to endothelial function/dysfunction” (B.R.A.H.M.S GMBH, priority 2009, dated 2016).
# Several values for one entry are separate records, joined by “and”; a condition that tells them apart may be missing. Identical values can stand only once.
# Test system: patients suffering from shortness of breath (SOB), acute coronary syndrome, acute heart failure (AHF), arrhythmia, asthma exacerbation, bronchitis, chest pain …
# Set-up: species or system human
# Settings: in vivo
# Description: Suitable threshold levels for the stratification of subjects into different groups (categories) have to be determined for each particular combination of vasoactive hormone or fragments thereof or precursors or fragments thereof, medication and disease. This can e.g. be done by grouping a reference population of patients according to their level of vasoactive hormone into certain quantiles, e.g. tertiles, quartiles, quintiles or even according to suitable percentiles. […] A HR around 1 (e.g. +/−0.1) indicates no elevated risk but also no benefit from medication for the particular group of patients.
# Survival rates, i.e. the proportion of patients surviving at a given time after entry into the studies, are plotted in the appended figures over time for different combinations of a particular vasoactive hormone with a particular medication. The patients have been stratified into quintiles according to their respective hormone levels. […] For some cases, two or more quintiles have been pooled were appropriate. Hazard ratios (HR) have been calculated for various combinations of particular vasoactive hormones with particular medications. HR have also been calculated for particular quintiles and/or pooled quintiles and compared to overall HR for each combination.
smiles,measurement,value
CC(=O)CC(c1ccccc1)c1c(O)c2ccccc2oc1=O (stereo not shown) [Warfarin],HR Medicament (overall patient group),1.6 and 1 and 1.3 and 0.8
